# In PMC9597602, “Metal Complexes as Antifungals? From a Crowd-Sourced Compound Library to the First In Vivo Experiments” (JACS Au, 2022):
# Where two headings read alike, the source gives them in different places.
# Tests used:
# [1] = tested on: Cryptococcus neoformans H99 ATCC 208821 type strain; assay: Antifungal MIC assay; format: cell-based; conditions: for MIC: Cryptococcus neoformans, ATCC208821, comparator antifungals, read-out: MIC* Cryptococcus neoformans ATCC 208821; for MIC Cn: initial CO-ADD dose-response screening, ≥80% growth inhibition
# Procedure: (§1) For the fungal assays, both fungi (yeast) strains were cultured for 3 days on Yeast Extract-Peptone Dextrose (YPD; Becton Dickinson 242720) agar at 30 °C. A yeast suspension of 1 × 10^6 to 5 × 10^6 CFU/mL (as determined by OD530) was prepared from five colonies from the agar plates, subsequently diluted with Yeast Nitrogen Base media (YNB; Becton Dickinson 233520), and added to each well of the compound containing plates (384-well plates, NBS; Corning CLS3640), giving a final cell density of 2.5 × 10^3 CFU/mL and a total volume of 50 μL. Plates were covered and incubated at 35 °C for 36 h without shaking. […] MIC values were recorded as the lowest concentration at which the growth was inhibited by ≥80%, equivalent to ″optically clear-to-slightly hazy″ or MIC score of 0–1 as per CLSI guidelines M27 Reference Method for Broth Dilution Antifungal Susceptibility Testing of Yeasts. […] Fluconazole (Sigma F8929) was used as internal control on each plate for all strains. All compounds were tested as two technical replicates in two to four independent biological assays, n = 4–8 final data.
# [2] = tested on: Candida albicans ATCC 90028 NCCLS11; assay: Antifungal MIC assay; format: cell-based; conditions: for MIC: Candida albicans, ATCC90028, comparator antifungals, read-out: MIC* Candida albicans ATCC 90028; for MIC Ca: initial CO-ADD dose-response screening, ≥80% growth inhibition
# Procedure: as §1, with “[…],” for “MIC values were recorded as the lowest concentration at which the growth was inhibited by ≥80%,”
# [3] = tested on: Candida auris CBS10913 JCM 15448; assay: Antifungal MIC assay, extended panel; format: cell-based; conditions: Candidozyma auris, comparator antifungals, read-out: MIC* Candida auris CBS10913
# Procedure: as §1, with “values were recorded as the lowest concentration at which the growth was inhibited by ≥80%, equivalent to ″optically clear-to-slightly hazy″ or MIC score of 0–1 as per CLSI guidelines M27” left out
# [4] = tested on: Candida auris CBS12373 KCTC 17810; assay: Antifungal MIC assay, extended panel; format: cell-based; conditions: Candidozyma auris, comparator antifungals, read-out: MIC* Candida auris CBS12373
# Procedure: as §1, with “values were recorded as the lowest concentration at which the growth was inhibited by ≥80%, equivalent to ″optically clear-to-slightly hazy″ or MIC score of 0–1 as per CLSI guidelines M27” left out
# [5] = tested on: Candida tropicalis ATCC 750; assay: Antifungal MIC assay, extended panel; format: cell-based; conditions: Candida tropicalis, ATCC750, comparator antifungals
# Procedure: as §1
# [6] = tested on: Cryptococcus deuterogattii ATCC 32609 VGII; assay: Antifungal MIC assay, extended panel; format: cell-based; conditions: Cryptococcus deuterogattii, ATCC32609, comparator antifungals
# Procedure: as §1
# [7] = tested on: Candida glabrata ATCC 90030 NCCLS 84; assay: Antifungal MIC assay, extended panel; format: cell-based; conditions: Nakaseomyces glabratus, ATCC90030, comparator antifungals
# Procedure: as §1
# [8] = tested on: Cryptococcus deuterogattii CBS7750 VGII; Serotype B; assay: Antifungal MIC assay, extended panel; format: cell-based; conditions: Cryptococcus deuterogattii, CBS7750, comparator antifungals
# Procedure: as §1
# [9] = tested on: HEK-293 human embryonic kidney cells ATCC CRL-1573; conditions: initial CO-ADD screening, 20 h; for CC50: read-out: HEK CC50
# Procedure: The cells were incubated together with the compounds for 20 h at 37 °C in 5% CO2. […] Tamoxifen (Sigma T5648) was used as internal control on each plate.
# [10] = tested on: Escherichia coli ATCC 25922 FDA control strain; assay: CO-ADD antibacterial MIC assay; format: cell-based; conditions: initial CO-ADD dose-response screening; ≥80% growth inhibition
# Procedure: (§2) For the all the bacterial assays, each bacterial strain was cultured in cation-adjusted Mueller Hinton broth (CAMHB; Bacto Laboratories 212322) at 37 °C overnight. A sample of each culture was then diluted 40-fold in fresh CAMHB and incubated at 37 °C for 1.5–3 h. The resultant mid-log phase cultures were diluted with CAMHB (CFU/mL measured by OD600) and then added to each well of the compound-containing plates (384-well non-binding surface (NBS) plates; Corning CLS3640), giving a cell density of 5 × 10^5 CFU/mL and a total volume of 50 μL. Plates were covered and incubated at 37 °C for 18 h without shaking. Inhibition of bacterial growth was determined by measuring the absorbance at 600 nm (OD600) using media only as negative control and bacteria without inhibitors as positive control. MIC values were determined as the lowest concentration at which the growth was inhibited by ≥80% (equivalent to no visible growth by the eye). Colistin sulfate (Sigma C4461) and vancomycin HCl (Sigma 861987) were used as internal controls on each plate for Gram-negative and Gram-positive bacteria, respectively. All compounds were tested as two technical replicates in two independent biological assays, n = 4 final data.
# [11] = tested on: Pseudomonas aeruginosa ATCC 27853 QC control strain; assay: CO-ADD antibacterial MIC assay; format: cell-based; conditions: initial CO-ADD dose-response screening; ≥80% growth inhibition
# Procedure: as §2
# [12] = tested on: methicillin-resistant Staphylococcus aureus ATCC 43300; assay: CO-ADD antibacterial MIC assay; format: cell-based; conditions: initial CO-ADD dose-response screening; ≥80% growth inhibition
# Procedure: as §2
# [13] = tested on: Acinetobacter baumannii ATCC 19606 type strain; assay: CO-ADD antibacterial MIC assay; format: cell-based; conditions: initial CO-ADD dose-response screening; ≥80% growth inhibition
# Procedure: as §2
# human red blood cells = format: cell-based; conditions: initial CO-ADD screening, 1 h; 10% hemolysis
# Procedure: Human whole blood (Australian Red Cross) was washed three times with 3 vol of 0.9% NaCl and resuspended in a concentration of 0.5 × 10^8 cells/mL, determined by a manual cell count in a Neubauer hemocytometer. […] After incubation, the plates were centrifuged at 1000g for 10 min to pellet cells and debris; 25 μL of the supernatant was then transferred to reading plates (384-well, polystyrene plated (PS), Corning CLS3680), with hemolysis determined by measuring the supernatant absorbance at […] (OD405) using cells without inhibitors as negative control and cells with 1% Triton X-100 (Sigma T8787) as positive control. […] Melittin (Sigma M2272) was used as internal control on each plate.
# [14] = ≥80% inhibition, converted with MW of Table S12
MIC Cn [1],MIC Ca [2],MIC Ec [10],MIC Pa [11],MIC MRSA (Sa) [12],MIC Ab [13],Structure (SMILES),CC50 [9] [µM],RBC HC10 (human red blood cells),HEK CC50 [9] [µg/mL],other results
5 µM,> 20 µM,> 20 µM,> 20 µM,10 µM,> 20 µM,O=C([O][Eu]([O]C(=O)c1cc(F)ccc1F)[O]C(=O)c1cc(F)ccc1F)c1cc(F)ccc1F.c1ccc(-c2ccnc3c2ccc2c(-c4ccccc4)ccnc23)cc1 [Eu-S1],> 20,> 20 µM,,
20 µM,> 20 µM,> 20 µM,> 20 µM,> 20 µM,> 20 µM,Nc1cc2cccnc2c2ncccc12.O=C([O][Eu]([O]C(=O)c1ccccc1F)[O]C(=O)c1ccccc1F)c1ccccc1F [Eu-S4],3.3,1.2 µM,,
20 µM,> 20 µM,> 20 µM,> 20 µM,> 20 µM,> 20 µM,O=C([O][Eu]([O]C(=O)c1ccc(F)cc1F)[O]C(=O)c1ccc(F)cc1F)c1ccc(F)cc1F.c1cnc2c(c1)ccc1cccnc12 [Eu-S5],13.6,0.5 µM,,
20 µM,20 µM,> 20 µM,> 20 µM,> 20 µM,> 20 µM,O=C([O][Eu]([O]C(=O)c1ccccc1F)[O]C(=O)c1ccccc1F)c1ccccc1F.c1cnc2c(c1)ccc1cccnc12 [Eu-S6],9.9,> 20 µM,,
<= 0.25 μg/mL,<= 0.25 μg/mL,> 32 µg/mL,> 32 µg/mL,<= 0.25 μg/mL,32 µg/mL,Cc1cccc2[n+]1[Pd-2]([Cl])([Cl])[n+]1c(C)cccc1C(C(C)(C)C)=C=C2c1ccccc1 [HM_C2],,> 32 µg/mL,1.1,
> 32 µg/mL,32 µg/mL,> 32 µg/mL,> 32 µg/mL,> 32 µg/mL,> 32 µg/mL,Cc1cccc(C(=C=C(c2cccc(C)n2)C(C)(C)C)c2ccccc2)n1.[Cl][Pt]([Cl])([Cl])[Cl] [HM_C5],,> 32 µg/mL,> 32,

# Continued, molecule first:
Structure (SMILES),MIC Cn [1],MIC Ca [2],MIC Ec [10],MIC Pa [11],MIC MRSA (Sa) [12],MIC Ab [13],CC50 [9] [µM],RBC HC10 (human red blood cells),HEK CC50 [9] [µg/mL],other results
"Nc1nc(=O)[nH]cc1F [5-Fluorocytosine, reference compound]",,,,,,,,,,"MIC ([1]; MIC = ≥80% inhibition): 0.001 to 0.016 µg/mL; MIC [1, 14]: 0.0107 to 0.172 µM; MIC ([2]; MIC = ≥80% inhibition): ≤ 0.001 µg/mL; MIC [2, 14]: ≤ 0.012 µM; MIC ([3]; MIC = ≥80% inhibition): ≤ 0.002 µg/mL; MIC [3, 14]: ≤ 0.021 µM; MIC ([4]; MIC = ≥80% inhibition): ≤ 0.002 µg/mL; MIC [4, 14]: ≤ 0.021 µM; MIC ([5]; MIC = ≥80% inhibition): 0.001 to 0.002 µg/mL; MIC [5, 14]: 0.012 to 0.021 µM; MIC ([6]; MIC = ≥80% inhibition): 0.002 to 0.25 µg/mL; MIC [6, 14]: 0.021 to 2.75 µM; MIC ([7]; MIC = ≥80% inhibition): > 32 µg/mL; MIC [7, 14]: > 351 µM; MIC ([8]; MIC = ≥80% inhibition): 0.06 to 0.25 µg/mL; MIC [8, 14]: 0.686 to 2.75 µM"
O=C([O][Eu]([O]C(=O)c1ccc(F)cc1F)[O]C(=O)c1ccc(F)cc1F)c1ccc(F)cc1F.c1ccc(-c2ccnc3c2ccc2c(-c4ccccc4)ccnc23)cc1 [Eu-S2],0.625 µM,10 µM,> 20 µM,> 20 µM,1.25 µM,> 20 µM,15.9,0.7 µM,,
O=C([O][Eu]([O]C(=O)c1ccccc1F)[O]C(=O)c1ccccc1F)c1ccccc1F.c1ccc(-c2ccnc3c2ccc2c(-c4ccccc4)ccnc23)cc1 [Eu-S3],5 µM,20 µM,> 20 µM,> 20 µM,10 µM,> 20 µM,14.7,> 20 µM,,
Cc1cccc2[n+]1[Pd-2]([Cl])([Cl])[n+]1c(C)cccc1C(c1ccccc1)=C=C2c1ccccc1 [HM_C1],1 µg/mL,16 µg/mL,> 32 µg/mL,> 32 µg/mL,2 µg/mL,> 32 µg/mL,,> 32 µg/mL,1.0,
